Data published in patent US11919908B2, “Substituted pyrrolo[2,3-d]pyrimidine compounds as JAK2 V617F inhibitors” (Incyte Corporation, priority 2020, dated 2024).

Key:
[1] = biological target: T1, pseudo-kinase domain (JH2) of human Wild Type JAK2 (Homo sapiens, UniProt O60674, F794H/W659A/W777A); assay: JAK2 LanthaScreen JH2-WT Binding Assay; conditions: 50 nM Fluorescent JAK2-JH2 Tracer, 1 hour at 25° C.
T1 construct: pseudo-kinase domain (JH2, amino-acids 536-812 with 3 surface mutations W659A, W777A, F794H); His (C); purchased BPS Bioscience 79463; host or cells: baculovirus expression system
T1 sequence (O60674 536-812 W659A/W777A/F794H): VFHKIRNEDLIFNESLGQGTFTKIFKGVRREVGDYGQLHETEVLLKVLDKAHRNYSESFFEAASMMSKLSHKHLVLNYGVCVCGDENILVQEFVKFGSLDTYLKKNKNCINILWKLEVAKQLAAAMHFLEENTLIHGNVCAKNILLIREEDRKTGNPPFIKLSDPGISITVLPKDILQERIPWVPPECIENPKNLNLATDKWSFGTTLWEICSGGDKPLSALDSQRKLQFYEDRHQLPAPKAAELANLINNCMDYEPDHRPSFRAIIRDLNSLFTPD
Description: (§1) Example B. JAK2 LanthaScreen JH2-WT Binding Assay JAK2 JH2-WT binding assay utilizes pseudo-kinase domain (JH2, amino-acids 536-812 with 3 surface mutations […]) of human Wild Type JAK2 expressed as C-terminal His-Avi-tagged, biotinylated protein in a baculovirus expression system (BPS Bioscience, Catalog #79463). The assay was conducted in black 384-well polystyrene plates in a final reaction volume of 20 μL. JAK2 JH2-WT (0.145 nM) was incubated with compounds (100 nL serially diluted in DMSO) in the presence of 50 nM Fluorescent JAK2-JH2 Tracer (MedChem Express Catalog #HY-102055) and 0.25 nM Streptavidin-Tb cryptate (Cisbio Part #610SATLB) in assay buffer (50 mM Tris, pH=7.5, 10 mM MgCl2, 0.01% Brij-35, 0.1% BSA, 1 mM EGTA, 5% Glycerol and 5 mM DTT). Non-specific binding was accessed in the presence of 2 mM ATP. After incubation for 1 hour at 25° C., LanthaScreen signals were read on a PHERAstar FS plate reader (BMG LABTECH). Data was analyzed with IDBS XLfit and GraphPad Prism 5.0 software using a four parameter dose response curve to determine IC50 for each compound.

[2] = biological target: T2, catalytic domain (JH1) of human JAK2 (Homo sapiens, UniProt O60674); assay: JAK2 LanthaScreen JH1 Binding Assay; conditions: 50 nM Fluorescent JAK2-JH1 Tracer, 2 hours at 25° C.
T2 construct: catalytic domain (JH1, amino acids 826-1132) of human JAK2; FLAG (N); purchased Carna Biosciences 08-445-20N; host or cells: baculovirus expression system
T2 sequence (O60674 826-1132): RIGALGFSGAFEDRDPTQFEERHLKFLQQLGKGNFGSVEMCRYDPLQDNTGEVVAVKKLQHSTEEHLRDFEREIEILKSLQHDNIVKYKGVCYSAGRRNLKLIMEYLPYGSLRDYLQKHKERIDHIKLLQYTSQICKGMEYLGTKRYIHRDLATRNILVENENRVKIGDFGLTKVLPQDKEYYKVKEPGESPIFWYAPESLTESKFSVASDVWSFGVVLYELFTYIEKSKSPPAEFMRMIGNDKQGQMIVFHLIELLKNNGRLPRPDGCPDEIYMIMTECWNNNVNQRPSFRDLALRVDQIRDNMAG
Description: Example A. JAK2 LanthaScreen […] Binding Assay JAK2 JH1 binding assay utilizes catalytic domain (JH1, amino acids 826-1132) of human JAK2 expressed as N-terminal FLAG-tagged, biotinylated protein in a baculovirus expression system (Carna Biosciences, Product #08-445-20N). The assay was conducted in black 384-well polystyrene plates in a final reaction volume of 20 μL. JAK2 JH1 (1.5 nM) was incubated with compounds (100 nL serially diluted in DMSO) in the presence of 50 nM Fluorescent JAK2-JH1 Tracer and 0.5 nM Streptavidin-Tb cryptate (Cisbio Part #610SATLB) in assay buffer (50 mM Tris, pH=7.5, 10 mM MgCl2, 0.01% Brij-35, 0.1% BSA, 1 mM EGTA, 5% Glycerol and 5 mM DTT). Non-specific binding was accessed in the presence of 2 mM ATP. After incubation for 2 hours at 25° C., LanthaScreen signals were read on a PHERAstar FS plate reader (BMG LABTECH). Data was analyzed with IDBS XLfit and GraphPad Prism 5.0 software using a four parameter dose response curve to determine IC50 for each compound.

[3] = biological target: T3, pseudo-kinase domain (JH2) of human V617F mutant JAK2 (Homo sapiens, UniProt O60674, F794H/V617F/W659A/W777A); assay: JAK2 LanthaScreen JH2-V617F Binding Assay; conditions: 50 nM Fluorescent JAK2-JH2 Tracer, 1 hour at 25° C.
T3 construct: pseudo-kinase domain (JH2, amino-acids 536-812 with 3 surface mutations W659A, W777A, F794H); His (C); purchased BPS Bioscience 79498; host or cells: baculovirus expression system
T3 sequence (O60674 536-812 V617F/W659A/W777A/F794H): as the sequence (O60674 536-812 W659A/W777A/F794H) above, with V82F counted along it
Description: as §1, with “C.” for “B.”, “JH2-V617F” for “JH2-WT”, “V617F mutant” for “Wild Type”, “#79498).” for “#79463).”, “JH2-V617F (0.26” for “JH2-WT (0.145”

Row | SMILES | IC50 [1] [µM] | IC50 [2] [µM] | IC50 [3] [µM]
1 | CN(C)S(=O)(=O)c1ccc(-c2[nH]c3nc(N)[nH]c(=O)c3c2-c2cnn(C3CCOCC3)c2)cc1 [Example 37, 4-(2-Amino-4-oxo-5-(1-(tetrahydro-2H-pyran-4-yl)-1H-pyrazol-4-yl)-4,7-dihydro-3H-pyrrolo[2,3-d]pyrimidin-6-yl)-N,N-dimethylbenzene sulfonamide] | > 2.5 | > 2.5 | 1 to 2.5
2 | CN(C)S(=O)(=O)c1ccc(-c2[nH]c3nc(N)[nH]c(=O)c3c2-c2ccccc2)cc1 [Example 38, 4-(2-Amino-4-oxo-5-phenyl-4,7-dihydro-3H-pyrrolo[2,3-d]pyrimidin-6-yl)-N,N-dimethylbenzene sulfonamide] | 0.1 to 0.5 | 0.5 to 1 | 0.1 to 0.5
3 | CN(C)S(=O)(=O)c1ccc(-c2[nH]c3nc(N)[nH]c(=O)c3c2-c2ccc(C#N)cc2)cc1 [Example 39, 4-(2-Amino-5-(4-cyanophenyl)-4-oxo-4,7-dihydro-3H-pyrrolo[2,3-d]pyrimidin-6-yl)-N,N-dimethylbenzene sulfonamide] | 0.5 to 1 | > 2.5 | 1 to 2.5
4 | COc1c(Cl)cccc1-c1c(-c2ccc(S(=O)(=O)N(C)C)cc2)[nH]c2nc(N)[nH]c(=O)c12 [Example 40, 4-(2-Amino-5-(3-chloro-2-methoxyphenyl)-4-oxo-4,7-dihydro-3H-pyrrolo[2,3-d]pyrimidin-6-yl)-N,N-dimethylbenzene sulfonamide] | > 2.5 | > 2.5 | > 2.5
5 | CN(C)S(=O)(=O)c1ccc(-c2[nH]c3nc(N)[nH]c(=O)c3c2-c2cccc3c2OCC3)cc1 [Example 41, 4-(2-Amino-5-(2,3-dihydrobenzofuran-7-yl)-4-oxo-4,7-dihydro-3H-pyrrolo[2,3-d]pyrimidin-6-yl)-N,N-dimethylbenzene sulfonamide] | 0.1 to 0.5 | > 2.5 | 0.1 to 0.5
6 | COc1ccc(-c2c(-c3ccc(S(=O)(=O)N(C)C)cc3)[nH]c3nc(N)[nH]c(=O)c23)c(OC)c1 [Example 42, 4-(2-Amino-5-(2,4-dimethoxyphenyl)-4-oxo-4,7-dihydro-3H-pyrrolo[2,3-d]pyrimidin-6-yl)-N,N-dimethylbenzene sulfonamide] | 0.5 to 1 | > 2.5 | 0.5 to 1
7 | COc1cccc(-c2c(-c3ccc(S(=O)(=O)N(C)C)cc3)[nH]c3nc(N)[nH]c(=O)c23)c1OC [Example 43, 4-(2-Amino-5-(2,3-dimethoxyphenyl)-4-oxo-4,7-dihydro-3H-pyrrolo[2,3-d]pyrimidin-6-yl)-N,N-dimethylbenzene sulfonamide] | 1 to 2.5 | > 2.5 | 1 to 2.5
8 | CN(C)S(=O)(=O)c1ccc(-c2[nH]c3nc(N)[nH]c(=O)c3c2-c2cccc3c2OCO3)cc1 [Example 44, 4-(2-Amino-5-(benzo[d] [1,3]dioxol-4-yl)-4-oxo-4,7-dihydro-3H-pyrrolo[2,3-d]pyrimidin-6-yl)-N,N-dimethylbenzene sulfonamide] | 0.1 to 0.5 | > 2.5 | 0.1 to 0.5
9 | CN(C)S(=O)(=O)c1ccc(-c2[nH]c3nc(N)[nH]c(=O)c3c2-c2cccc(CN)c2)cc1 [Example 45, 4-(2-Amino-5-(3-(aminomethyl)phenyl)-4-oxo-4,7-dihydro-3H-pyrrolo[2,3-d]pyrimidin-6-yl)-N,N-dimethylbenzenesulfonamide] | 1 to 2.5 | > 2.5 | > 2.5
10 | CN(C)S(=O)(=O)c1ccc(-c2[nH]c3nc(N)[nH]c(=O)c3c2-c2ccnn2C)cc1 [Example 46, 4-(2-Amino-5-(1-methyl-1H-pyrazol-5-yl)-4-oxo-4,7-dihydro-3H-pyrrolo[2,3-d]pyrimidin-6-yl)-N,N-dimethylbenzenesulfonamide] | > 2.5 | > 2.5 | > 2.5
11 | CN(C)S(=O)(=O)c1ccc(-c2[nH]c3nc(N)[nH]c(=O)c3c2C2=CCCC2)cc1 [Example 47, 4-(2-Amino-5-(cyclopent-1-en-1-yl)-4-oxo-4,7-dihydro-3H-pyrrolo[2,3-d]pyrimidin-6-yl)-N,N-dimethylbenzenesulfonamide] | 0.1 to 0.5 | 0.1 to 0.5 | 0.1 to 0.5
12 | CN(C)S(=O)(=O)c1ccc(-c2[nH]c3nc(N)[nH]c(=O)c3c2-c2cccc3c2OCC(=O)N3)cc1 [Example 48, 4-(2-Amino-4-oxo-5-(3-oxo-3,4-dihydro-2H-benzo[b][1,4]oxazin-8-yl)-4,7-dihydro-3H-pyrrolo[2,3-d]pyrimidin-6-yl)-N,N-dimethylbenzenesulfonamide] | 0.1 to 0.5 | > 2.5 | 0.1 to 0.5
13 | CN(C)S(=O)(=O)c1ccc(-c2[nH]c3nc(N)[nH]c(=O)c3c2-c2cccc3c2OCCN3)cc1 [Example 49, 4-(2-Amino-5-(3,4-dihydro-2H-benzo[b][1,4]oxazin-8-yl)-4-oxo-4,7-dihydro-3H-pyrrolo[2,3-d]pyrimidin-6-yl)-N,N-dimethylbenzenesulfonamide] | 0.5 to 1 | > 2.5 | 0.5 to 1
14 | COc1nn(Cc2ccc(C(=O)O)cc2)cc1-c1c(-c2ccc(S(=O)(=O)N(C)C)cc2)[nH]c2nc(N)[nH]c(=O)c12 [Example 50] | ≤ 0.1 | > 2.5 | ≤ 0.1
15 | CN(C)S(=O)(=O)c1ccc(-c2[nH]c3nc(N)[nH]c(=O)c3c2-c2cnn(Cc3cccc(C(=O)O)c3)c2)cc1 [Example 51, 3-((4-(2-amino-6-(4-(N,N-dimethylsulfamoyl)phenyl)-4-oxo-4,7-dihydro-3H-pyrrolo[2,3-d]pyrimidin-5-yl)-1H-pyrazol-1-yl)methyl)benzoic acid] | 0.5 to 1 | 1 to 2.5 | 0.5 to 1
16 | CN(C)S(=O)(=O)c1ccc(-c2[nH]c3nc(N)[nH]c(=O)c3c2-c2cnn(Cc3ccc(C(=O)O)cc3)c2)cc1 [Example 52, 4-((4-(2-amino-6-(4-(N,N-dimethylsulfamoyl)phenyl)-4-oxo-4,7-dihydro-3H-pyrrolo[2,3-d]pyrimidin-5-yl)-1H-pyrazol-1-yl)methyl)benzoic acid] | 0.1 to 0.5 | > 2.5 | 0.1 to 0.5
17 | COc1ccccc1-c1c(-c2ccc(CN3CCC(S(C)(=O)=O)CC3)cc2)[nH]c2nc(N)[nH]c(=O)c12 [Example 53] | 0.1 to 0.5 | > 2.5 | 0.1 to 0.5
18 | COc1ccccc1-c1c(-c2ccc(C(=O)N3CCOCC3)cc2)[nH]c2nc(N)[nH]c(=O)c12 [Example 54, 2-Amino-5-(2-methoxyphenyl)-6-(4-(morpholine-4-carbonyl)phenyl)-3,7-dihydro-4H-pyrrolo[2,3-d]pyrimidin-4-one] | 0.5 to 1 | > 2.5 | 0.5 to 1
19 | CCc1c(-c2ccccc2)[nH]c2nc(N)[nH]c(=O)c12 [Example 55, 2-Amino-5-ethyl-6-phenyl-3,7-dihydro-4H-pyrrolo[2,3-d]pyrimidin-4-one] | > 2.5 | > 2.5 | > 2.5
